These results are taken from publication PMC9013686, “Inter-individual variation in chlorpyrifos toxicokinetics characterized by physiologically based kinetic (PBK) and Monte Carlo simulation comparing human liver microsome and Supersome™ cytochromes P450 (CYP)-specific kinetic data as model input” (Archives of Toxicology, 2022).

The subject of data set [1] is RBC AChE. Briefly: PBK model-based reverse dosimetry and BMD analysis of RBC AChE inhibition. More on the design: species or system human. As to the method: In the present study, PBK model-based reverse dosimetry was applied to translate the in vitro rhAChE inhibition concentration–response curve into in vivo RBC AChE inhibition dose–response curves first for the average adult population.
The external dose values thus obtained together with corresponding inhibitory effects were used to construct RBC AChE inhibition dose–response curves for the average population.
A BMD analysis was performed to derive a POD from the predicted in vivo dose–response curves obtained for the average population. In the present study, the BMDL10 values were used as POD based on the fact that the United States Environmental Protection Agency (USEPA) also used a 10% effect level to define a health based guidance value (USEPA [2011], [2014]). BMD analysis was carried out using the Benchmark Dose Software version 3.1.2 (USEPA [2019]), with exponential or hill models because of their adequacy in predicting continuous data. The BMDL10 value with the lowest AIC was chosen and further evaluated by comparing the obtained values with reported BMDL10 by USEPA ([2011], [2014]).

The test system of data set [2] is CYP1A2, CYP2B6, CYP2C19 and CYP3A4. Kind of data set: Summed Supersome CYP kinetics scaled to whole liver. Format: in vitro ADME, human. As to the method: The in vivo Kmi values were assumed to be equal to the apparent Kmi(app) values (µM) obtained in the in vitro incubations, while the in vivo Vmaxi for each CYP isoform was derived from their corresponding apparent CYP isoform Vmaxi(app) (pmol/min/pmolCYP) using Eq. 3:3 Vmaxi=Vmaxiapp×CYPiabundance×ISEF×60×MPL×1000×VL/1,000,000,
To gain a better insight in the contribution of each CYP to the metabolism of CPF in vivo at different concentrations of CPF, the apparent Supersome™ kinetic data were scaled toward the whole liver according to Eq. 3.
To evaluate the performance of the Supersomes™ together with the ISEF to predict the bioactivation of CPF, the sum of the scaled CE of the four individual Supersomes™ was compared to the CE obtained for the pooled HLMs (for both non-biphasic and biphasic scenarios).

Data set [3] has as its target T1, CYP2B6 (Homo sapiens, UniProt P20813).
T1 sequence (P20813 1-491): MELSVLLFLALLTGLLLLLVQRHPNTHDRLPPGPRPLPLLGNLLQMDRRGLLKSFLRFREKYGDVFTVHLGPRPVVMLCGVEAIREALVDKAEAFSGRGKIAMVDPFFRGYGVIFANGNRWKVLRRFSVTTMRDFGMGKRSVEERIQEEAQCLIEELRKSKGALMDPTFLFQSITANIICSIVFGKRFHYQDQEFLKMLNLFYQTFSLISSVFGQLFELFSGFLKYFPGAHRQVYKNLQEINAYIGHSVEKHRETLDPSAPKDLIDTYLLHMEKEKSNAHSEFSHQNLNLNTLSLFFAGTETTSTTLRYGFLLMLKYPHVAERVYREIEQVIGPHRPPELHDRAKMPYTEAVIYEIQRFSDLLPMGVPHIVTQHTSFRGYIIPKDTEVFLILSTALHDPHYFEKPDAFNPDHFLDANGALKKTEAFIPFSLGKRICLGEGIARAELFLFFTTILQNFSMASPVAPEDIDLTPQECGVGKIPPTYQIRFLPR
As to conditions: bioactivation of CPF, ref Foxenberg et al. [2007]; cited from earlier work.

Broadly, the Km is the substrate concentration at which the rate is half of its maximum.

Regarding `CCOP(=S)(OCC)Oc1nc(Cl)c(Cl)cc1Cl` [CPF, Chlorpyrifos], the “predicted BMDL10 lower than reported human model-derived BMDL10” value in data set [1] (HLM-based biphasic PBK model versus USEPA [2014]) is reported as 1.8 fold; in data set [1] (Supersome-based PBK model versus USEPA [2014]), 1.9 fold. For the same molecule, the “BMDL10 of HLM-based approach with biphasic kinetics versus HLM-based approach without high affinity component” value in data set [1] (average population) is recorded as “sixfold lower”. The “difference in BMDL10 between HLM-based (biphasic) and Supersome-based PBK model” value in data set [1] (average population) worked out at 1.04 fold. In addition, in data set [1] (non-biphasic HLM-based PBK model versus USEPA [2014]), the “predicted BMDL10 higher than reported human model-derived BMDL10” value was 3.3 fold. Also, the “summed scaled CE of Supersomes” value in data set [2] (bioactivation of CPF, sum of four individual Supersomes) is 1578 L/h. Besides, the figures for the “overall extrapolated Vmax from Supersome data versus HLM-derived Vmax” value in data set [2] (high affinity component) and in data set [2] (low affinity component) were 1.9 fold and 0.9 fold, respectively. The Km in data set [3] was 0.81 µM.
